From patent US12168643B2, “Compounds for the treatment of neuromuscular disorders” (NMD PHARMA A/S, priority 2019, dated 2024)
Marks after values point to notes of the source that are not given here.

How the values were obtained:
[1] = system: isolated rat soleus muscles; assay: Recovery of nerve-stimulated contractile force in isolated rat soleus nerve-muscle preparations exposed to tubocurarine; assay type: cell-based; conditions: 50 μM compound, 40 mins exposure, after 90 mins 115 nM tubocurarine
Experimental: FIG. 2. […] Force traces from a representative muscle stimulated to contract in 1) control condition before addition of neuromuscular blocking agent, 2) the force response to stimulation after 90 minutes incubation with Tubocurarine. […] The traces presented in panel A (1, 2, 3), correspond to the dotted lines in panel B, respectively.
Recovery of force is quantified as the percentage of the force prior to tubocurarine that is recovered by the compound.
The current disclosure relates to compounds that inhibit CIC-1 ion channels and increase muscle excitability and thereby improve muscle function in clinical conditions where muscle activation is failing. Such conditions result in loss of contractile function of skeletal muscle, weakness and excessive fatigue. In this series of experiments the compounds were tested for their ability to restore contractile function of isolated rat muscle when the neuromuscular transmission had been compromised akin to neuromuscular disorders.
Experimentally, soleus muscles from 4-5 week old rats were isolated with the motor nerve remaining attached. The nerve-muscle preparations were mounted in experimental setups that enabled electrical stimulation of the motor nerve. Stimulation of the motor nerve led to activation of the muscle fibres and ensuing force production that was recorded.
After mounting the nerve-muscle preparation in the experimental setup, the contractile function of the muscle was initially assessed under the control conditions (FIG. 2A). […] The experimental condition mimics the failing neuromuscular transmission in a range of neuromuscular disorders. After addition of tubocurarine the contractile force declined over the next 90 mins to 10-50% of the control force. 50 μM of the test compound was then added and the contractile force recovered despite the continued presence of tubocurarine. To quantify the ability of the compound to restore force the percentage of the initial force that was restored was determined after 40 mins of compound exposure (FIG. 2B) and the point increase is reported in Table 3.

[2] = system: hindlimb muscle force; assay: In situ isometric hindlimb force in anaesthetised rats with neuromuscular transmission partially inhibited by Cisatracurium; assay type: in vivo; conditions: 47.2 mg/kg i.v., 80 Hz stimulation, Cisatracurium infusion, female Lewis rats
Experimental: Isometric hindlimb force was measured in 12-week old female Lewis rats in the presence and absence of compound.
Rats were placed under anesthesia with isoflurane (2-4%), intubated and subsequently connected to a micro ventilator (Microvent 1, Hallowell EMC, US). Two stimulation electrodes were inserted through the skin to stimulate the sciatic nerve. A small incision was made proximal to the ankle, to expose the Achilles tendon, which was tied by cotton string, and connected to a force transducer (Fort250, World Precision Instruments) with adjustable position (Vernier control). The Achilles tendon was then cut distal to the attached cotton string. […]
Muscle contractile properties were assessed by applying an electrical current (under supramaximal voltage conditions) to the nerve and recording the force generated by the muscle. The muscle was stretched until maximal force was obtained, when assessed by 2 Hz stimulation. Isometric force was measured every 30 seconds at 12 Hz (Twitch), 10 pulses, and at every 5 minutes at 80 Hz (Tetanic) for 1 second (80 pulses). […] The effect of test article was assessed on its ability to increase force generated from the stimulation pattern applied. The effect was assessed in the ability to increase force per se (tetanic, 80 Hz, stimulation), and the ratio between individual twitch peaks (12 Hz stimulation). […]

[3] = biological target: T1, CIC-1 ion channel (Rattus norvegicus, UniProt P35524); assay: Electrophysiological measurement (three micro-electrode Gm) of compound inhibition of CIC-1 in rat soleus muscle fibres; assay type: cell-based; conditions: whole rat soleus muscle, approx. 30° C., four increasing concentrations; mean ± spread, n = experiments; read-out: EC50 (inhibition of CIC-1 ion channel, reduction of Gm)
T1 construct: from tissue; host or cells: whole soleus muscle of 12-14 week old Wistar rats
T1 sequence (P35524 1-994): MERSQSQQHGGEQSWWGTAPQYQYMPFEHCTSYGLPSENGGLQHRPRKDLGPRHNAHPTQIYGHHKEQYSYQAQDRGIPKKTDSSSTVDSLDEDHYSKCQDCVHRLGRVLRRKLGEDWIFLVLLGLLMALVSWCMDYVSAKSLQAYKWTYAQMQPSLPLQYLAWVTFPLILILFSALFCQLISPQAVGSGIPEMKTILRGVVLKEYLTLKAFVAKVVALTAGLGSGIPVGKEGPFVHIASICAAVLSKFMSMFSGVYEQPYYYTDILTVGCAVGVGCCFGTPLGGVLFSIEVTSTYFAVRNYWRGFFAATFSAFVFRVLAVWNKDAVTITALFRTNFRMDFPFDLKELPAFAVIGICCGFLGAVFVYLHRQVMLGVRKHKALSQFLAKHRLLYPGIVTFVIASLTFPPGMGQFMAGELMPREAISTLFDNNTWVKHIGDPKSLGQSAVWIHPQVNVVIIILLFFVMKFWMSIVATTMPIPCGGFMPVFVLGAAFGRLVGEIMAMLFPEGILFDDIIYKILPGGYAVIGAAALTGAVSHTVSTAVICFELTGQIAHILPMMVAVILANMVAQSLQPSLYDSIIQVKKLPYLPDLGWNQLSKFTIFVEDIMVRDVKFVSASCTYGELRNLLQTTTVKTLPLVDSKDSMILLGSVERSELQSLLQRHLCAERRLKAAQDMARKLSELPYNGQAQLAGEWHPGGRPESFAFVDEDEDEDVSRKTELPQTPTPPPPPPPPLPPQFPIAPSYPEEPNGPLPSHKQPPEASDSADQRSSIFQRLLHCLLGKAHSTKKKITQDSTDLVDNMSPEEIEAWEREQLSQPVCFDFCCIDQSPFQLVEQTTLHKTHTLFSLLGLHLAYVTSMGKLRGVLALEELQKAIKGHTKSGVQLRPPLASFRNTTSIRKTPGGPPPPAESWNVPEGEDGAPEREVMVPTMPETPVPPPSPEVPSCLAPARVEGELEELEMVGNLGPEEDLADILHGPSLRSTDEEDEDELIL

EC50 [3] [µM] | Structure (SMILES) | Point increase (%) of initial force that was restored [1] | increase in tetanic force [2] [%]
 | COC[C@@H](Oc1ccc(Br)cc1C1CC1)C(=O)O (single isomer, unassigned) [(2R)-A-1] | 0.2% | 
 | COC[C@@H](Oc1ccc(Br)cc1C1CCC1)C(=O)[O-].[Na+] [(2R)-A-6, Sodium (R)-2-(4-bromo-2-cyclobutylphenoxy)-3-methoxypropanoate] | −4.1 ± 1.4% | 
3.7 ± 0.2 | COC[C@H](Oc1ccc(Br)cc1C1CC1)C(=O)O [Compound A-1, (2S)-2-(4-Bromo-2-cyclopropylphenoxy)-3-methoxypropanoic acid] | 36.3* % | 85
 | COC[C@H](Oc1cc(F)c(Br)cc1C1CC1)C(=O)O [Compound A-2, (2S)-2-(4-bromo-2-cyclopropyl-5-fluorophenoxy)-3-methoxypropanoic acid] | 22.3 ± 3.8% | 
3.2 ± 2.1 | COC[C@H](Oc1ccc(Br)cc1C1CCC1)C(=O)O [Compound A-6, (2S)-2-(4-bromo-2-cyclobutylphenoxy)-3-methoxypropanoic acid] | 35.6 ± 8.3% | 
